Measured values reported in patent US7446199B2, “Compositions useful as inhibitors of protein kinases” (Vertex Pharmaceuticals Incorporated, priority 2003, dated 2008).
Where “and” joins values, the source holds several entries; their conditions need not be identical. Identical values can stand only once.

Columns and labels:
Type in all cases: biochemical
KDR = KDR (Homo sapiens, UniProt P35968); assay: KDR enzyme assay, coupled enzyme assay; details: 300 μM ATP, 10 μM poly E4Y, 30 nM KDR, 37° C.
Chain of KDR (P35968 20-1356): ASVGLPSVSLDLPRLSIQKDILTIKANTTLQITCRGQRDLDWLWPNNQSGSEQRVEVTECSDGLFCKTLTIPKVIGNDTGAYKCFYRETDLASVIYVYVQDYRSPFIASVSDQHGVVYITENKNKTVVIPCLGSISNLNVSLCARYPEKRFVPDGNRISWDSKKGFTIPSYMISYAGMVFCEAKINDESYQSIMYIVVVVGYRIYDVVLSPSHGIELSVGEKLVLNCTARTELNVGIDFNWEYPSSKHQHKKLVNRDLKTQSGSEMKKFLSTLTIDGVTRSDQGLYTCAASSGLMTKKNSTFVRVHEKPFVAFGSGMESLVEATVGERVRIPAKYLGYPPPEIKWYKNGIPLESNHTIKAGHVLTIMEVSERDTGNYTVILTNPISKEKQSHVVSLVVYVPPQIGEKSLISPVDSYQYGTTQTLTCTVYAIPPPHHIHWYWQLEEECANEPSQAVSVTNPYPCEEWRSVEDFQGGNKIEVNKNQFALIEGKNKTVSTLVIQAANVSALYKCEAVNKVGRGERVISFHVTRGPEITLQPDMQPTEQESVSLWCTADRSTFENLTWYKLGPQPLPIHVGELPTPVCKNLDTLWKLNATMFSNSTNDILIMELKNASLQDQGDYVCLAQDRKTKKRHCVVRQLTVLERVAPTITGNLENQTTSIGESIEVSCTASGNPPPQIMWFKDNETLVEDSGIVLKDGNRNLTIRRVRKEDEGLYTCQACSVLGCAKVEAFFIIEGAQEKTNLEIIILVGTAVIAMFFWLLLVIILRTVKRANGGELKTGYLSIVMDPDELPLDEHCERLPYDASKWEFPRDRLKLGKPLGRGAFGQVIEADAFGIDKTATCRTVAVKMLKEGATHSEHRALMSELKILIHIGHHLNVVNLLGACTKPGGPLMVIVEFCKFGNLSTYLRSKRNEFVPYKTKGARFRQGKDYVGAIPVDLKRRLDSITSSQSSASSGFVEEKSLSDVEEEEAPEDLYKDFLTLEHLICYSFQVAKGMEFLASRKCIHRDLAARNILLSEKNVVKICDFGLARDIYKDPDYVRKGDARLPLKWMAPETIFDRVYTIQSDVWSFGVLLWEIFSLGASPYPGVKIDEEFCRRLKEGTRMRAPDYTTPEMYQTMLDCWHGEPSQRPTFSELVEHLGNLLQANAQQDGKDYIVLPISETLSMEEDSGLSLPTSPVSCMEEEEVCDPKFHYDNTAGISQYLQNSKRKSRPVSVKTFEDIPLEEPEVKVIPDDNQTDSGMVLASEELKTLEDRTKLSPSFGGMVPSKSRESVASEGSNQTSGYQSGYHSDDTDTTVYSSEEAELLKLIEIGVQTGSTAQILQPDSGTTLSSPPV
Procedure, shortened: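 Coupled enzyme (PK/LDH, NADH) assay with 30 nM KDR in 200 mM HEPES 7.5, 10 mM MgCl2, 25 mM NaCl, 1 mM DTT, 1.5% DMSO; 300 μM ATP, 10 μM poly E4Y. Compound at 30 μM final, preincubated ~10 min at 37 °C before ATP start; rates read over 5 min at 37 °C.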

c-Met = c-Met (Homo sapiens, UniProt P08581); assay: Ki determination for the inhibition of c-Met, coupled enzyme system; details: 200 μM ATP, 10 μM polyGluTyr, 80 nM c-Met, 30° C.
Chain of c-Met (P08581 25-1390): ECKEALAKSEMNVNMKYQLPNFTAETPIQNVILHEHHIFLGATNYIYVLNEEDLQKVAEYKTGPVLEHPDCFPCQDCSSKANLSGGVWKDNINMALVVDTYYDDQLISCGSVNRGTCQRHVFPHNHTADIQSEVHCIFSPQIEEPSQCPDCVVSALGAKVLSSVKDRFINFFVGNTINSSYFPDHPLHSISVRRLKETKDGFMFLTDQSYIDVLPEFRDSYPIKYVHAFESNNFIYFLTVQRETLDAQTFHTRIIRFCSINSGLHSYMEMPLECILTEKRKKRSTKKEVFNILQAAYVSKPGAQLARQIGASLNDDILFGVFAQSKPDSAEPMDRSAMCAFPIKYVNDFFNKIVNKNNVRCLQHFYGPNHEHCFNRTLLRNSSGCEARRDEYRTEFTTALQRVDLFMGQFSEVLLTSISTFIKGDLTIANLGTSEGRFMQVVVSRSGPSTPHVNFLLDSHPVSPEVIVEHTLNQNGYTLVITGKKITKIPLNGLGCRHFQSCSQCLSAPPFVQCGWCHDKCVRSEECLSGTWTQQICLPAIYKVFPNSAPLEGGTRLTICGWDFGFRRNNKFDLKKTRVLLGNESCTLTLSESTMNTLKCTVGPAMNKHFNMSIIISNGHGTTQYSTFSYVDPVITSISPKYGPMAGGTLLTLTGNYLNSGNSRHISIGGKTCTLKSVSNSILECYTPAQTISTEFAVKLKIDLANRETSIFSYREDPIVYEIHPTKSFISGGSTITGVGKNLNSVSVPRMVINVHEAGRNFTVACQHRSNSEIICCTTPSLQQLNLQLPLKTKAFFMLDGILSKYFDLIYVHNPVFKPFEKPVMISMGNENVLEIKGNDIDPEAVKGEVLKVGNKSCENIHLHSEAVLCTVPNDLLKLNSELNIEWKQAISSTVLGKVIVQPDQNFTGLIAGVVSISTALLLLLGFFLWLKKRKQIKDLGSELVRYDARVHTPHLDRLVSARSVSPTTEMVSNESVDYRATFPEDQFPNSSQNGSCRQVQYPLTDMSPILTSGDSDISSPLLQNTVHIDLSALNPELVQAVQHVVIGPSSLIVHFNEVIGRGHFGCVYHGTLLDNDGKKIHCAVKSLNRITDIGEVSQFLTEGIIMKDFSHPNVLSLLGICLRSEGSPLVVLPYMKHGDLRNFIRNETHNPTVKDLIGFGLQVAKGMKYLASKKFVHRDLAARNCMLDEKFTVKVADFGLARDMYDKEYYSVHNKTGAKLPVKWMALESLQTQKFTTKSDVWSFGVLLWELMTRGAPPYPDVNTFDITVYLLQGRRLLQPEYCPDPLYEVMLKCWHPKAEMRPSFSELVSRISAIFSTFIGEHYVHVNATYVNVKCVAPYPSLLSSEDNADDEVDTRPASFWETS
Procedure, shortened: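 Coupled pyruvate kinase/lactate dehydrogenase NADH assay with 80 nM c-Met, 200 μM ATP, 10 μM polyGluTyr in pH 7.5 HEPES, 1.5% DMSO at 30° C. Compound (0.006–12.5 μM final, 12-point) preincubated 10 min; ATP started reaction, rates read over 10 min; Ki derived from rate versus inhibitor concentration.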

SYK = SYK (Homo sapiens, UniProt P43405); assay: SYK enzyme assay, coupled enzyme assay; details: 200 μM ATP, 4 μM poly Gly-Tyr peptide, 30° C.
Method: Compounds were screened for their ability to inhibit SYK using a standard coupled enzyme assay (Fox et al., Protein Sci. 1998, 7, 2249). Reactions were carried out in 100 mM HEPES (pH 7.5), 10 mM MgCl2, 25 mM NaCl, 1 mM DTT and 1.5% DMSO. Final substrate concentrations in the assay were 200 μM ATP (Sigma chemical Co.) and 4 μM poly Gly-Tyr peptide (Sigma Chemical Co.). Assays were carried out at 30° C. and 200 nM SYK. Final concentrations of the components of the coupled enzyme system were 2.5 mM phosphoenolpyruvate, 300 μM NADH, 30 μg/ml pyruvate kinase and 10 μg/ml lactate dehydrogenase.
An assay stock buffer solution was prepared containing all of the reagents listed above, with the exception of SYK, DTT, and the test compound of interest of the present invention. 56 μl of the test reaction was placed in a 96 well plate followed by the addition of 1 μl of 2 mM DMSO stock containing the test compound of the present invnetion (final compound concentration 30 μM). The plate was pre-incubated for ˜10 minutes at 30° C. and the reaction initiated by the addition of 10 μl of enzyme (final concentration 25 nM). Rates of reaction were obtained using a BioRad Ultramark plate reader (Hercules, Calif.) over a 5 minute read time at 30° C., and Ki values for the compounds of the present invention were determined according to standard methods.

SMILES	Ki (KDR)	Ki (c-Met) [nM]	Ki (SYK) [nM]
CC(=O)Nc1cccc(-c2cnc3[nH]cc(-c4oncc4-c4cccc(F)c4F)c3c2)c1 [Compound 65, N-(3-{3-[4-(2,3-Difluoro-phenyl)-isoxazol-5-yl]-1H-pyrrolo[2,3-b]pyridin-5-yl}-phenyl)-acetamide]	< 200 nM	< 200	1000 to 12500
O=c1ccc(-c2cnc3[nH]cc(-c4oncc4-c4cccc(F)c4F)c3c2)c[nH]1 [Compound 67, 5-{3-[4-(2,3-Difluoro-phenyl)-isoxazol-5-yl]-1H-pyrrolo [2,3-b]pyridin-5-yl}-1H-pyridin-2-one]	< 200 nM	< 200	200 to 1000
Fc1cccc(-c2cnoc2-c2c[nH]c3ncc(-c4ccc(N5CCNCC5)cc4)cc23)c1F [Compound 68, 3-[4-(2,3-Difluoro-phenyl)-isoxazol-5-yl]-5-(4-piperazin-1-yl-phenyl)-1H-pyrrolo[2,3-b]pyridine]	< 200 nM	< 200	200 to 1000
CN1CCN(c2ccc(-c3cnc4[nH]cc(-c5oncc5-c5cccc(F)c5F)c4c3)cc2)CC1 [Compound 70, 3-[4-(2,3-Difluoro-phenyl)-isoxazol-5-yl]-5-[4-(4-methyl-piperazin-1-yl)-phenyl]-1H-pyrrolo[2,3-b]pyridine methanesulfonate]	< 200 nM	< 200	200 to 1000
CN1CCN(c2ccc(-c3cnc4[nH]cc(-c5oncc5-c5cccc(F)c5F)c4c3)cn2)CC1 [Compound 71, 3-[4-(2,3-Difluoro-phenyl)-isoxazol-5-yl]-5-[6-(4-methyl-piperazin-1-yl)-pyridin-3-yl]-1H-pyrrolo[2,3-b]pyridine]	< 200 nM	< 200	1000 to 12500
Fc1cccc(-c2cnoc2-c2c[nH]c3ncc(-c4ccccn4)cc23)c1F [Compound 73, 3-(4-(2,3-Difluoro-phenyl)-isoxazol-5-yl)-5-pyridin-2-yl-1H-pyrrolo[2,3-b]pyridine]	1000 to 12500 nM	< 200	1000 to 12500
Fc1cccc(-c2cnoc2-c2c[nH]c3ncc(-c4c[nH]cn4)cc23)c1F [Compound 76, 3-[4-(2,3-Difluoro-phenyl)-isoxazol-5-yl]-5-(3H-imidazol-4-yl)-1H-pyrrolo[2,3-b]pyridine]	200 to 1000 nM	< 200	1000 to 12500
Fc1cccc(-c2cnoc2-c2c[nH]c3ncc(-c4cnc5[nH]ccc5c4)cc23)c1F [Compound 77, 3-[4-(2,3-Difluoro-phenyl)-isoxazol-5-yl]-1H,1′H-[5,5′]bi[pyrrolo[2,3-b]pyridinyl]]	< 200 nM	< 200	200 to 1000
CN(C)Cc1ccnc(-c2cnc3[nH]cc(-c4oncc4-c4cccc(F)c4F)c3c2)c1 [Compound 82, (2-{3-[4-(2,3-Difluoro-phenyl)-isoxazol-5-yl]-1H-pyrrolo[2,3-b]pyridin-5-yl}-pyridin-4-ylmethyl)-dimethyl-amine]	< 200 nM	< 200	1000 to 12500
CN(C)Cc1ccc(-c2cnc3[nH]cc(-c4oncc4-c4cccc(F)c4F)c3c2)nc1 [Compound 84, (6-{3-[4-(2,3-Difluoro-phenyl)-isoxazol-5-yl]-1H-pyrrolo[2,3-b]pyridin-5-yl}-pyridin-3-ylmethyl)-dimethyl-amine]	< 200 nM	< 200	1000 to 12500
Nc1cccc(-c2cnc3[nH]cc(-c4oncc4-c4cccc(F)c4F)c3c2)c1 [Compound 86, 3-{3-[4-(2,3-Difluoro-phenyl)-isoxazol-5-yl]-1H-pyrrolo [2,3-b]pyridin-5-yl}-phenylamine]	< 200 nM and 1000 to 12500 nM	< 200	200 to 1000
CN(C)c1ccc(-c2cnc3[nH]cc(-c4oncc4-c4cccc(F)c4F)c3c2)cc1 [Compound 88, (4-{3-[4-(2,3-Difluoro-phenyl)-isoxazol-5-yl]-1H-pyrrolo[2,3-b]pyridin-5-yl}-phenyl)-dimethyl-amine]	< 200 nM	< 200	1000 to 12500
Nc1ccc(-c2cnc3[nH]cc(-c4oncc4-c4cccc(F)c4F)c3c2)cc1 [Compound 90, 4-{3-[4-(2,3-Difluoro-phenyl)-isoxazol-5-yl]-1H-pyrrolo [2,3-b]pyridin-5-yl}-phenylamine]	< 200 nM	< 200	200 to 1000
CN(C)Cc1ccc(-c2cnc3[nH]cc(-c4oncc4-c4cccc(F)c4F)c3c2)cc1 [Compound 91, (4-{3-[4-(2,3-Difluoro-phenyl)-isoxazol-5-yl]-1H-pyrrolo[2,3-b]pyridin-5-yl}-benzyl)-dimethyl-amine]	200 to 1000 nM	< 200	1000 to 12500
Fc1cccc(-c2cnoc2-c2c[nH]c3ncc(-c4ccc(CN5CCCC5)cc4)cc23)c1F [Compound 93, 3-[4-(2,3-Difluoro-phenyl)-isoxazol-5-yl]-5-(4-pyrrolidin-1-ylmethyl-phenyl)-1H-pyrrolo[2,3-b]pyridine]	< 200 nM	< 200	1000 to 12500
CS(=O)(=O)Nc1ccc(-c2cnc3[nH]cc(-c4oncc4-c4cccc(F)c4F)c3c2)cc1 [Compound 98, N-(4-{3-[4-(2,3-Difluoro-phenyl)-isoxazol-5-yl]-1H-pyrrolo[2,3-b]pyridin-5-yl}-phenyl)-methane sulfonamide]	< 200 nM	< 200	1000 to 12500
Clc1cccc(-c2cnoc2-c2c[nH]c3ncc(-c4cccnc4)cc23)c1Cl [Compound 99, 3-[4-(2,3-Dichloro-phenyl)-isoxazol-5-yl]-5-pyridin-3-yl-1H-pyrrolo[2,3-b]pyridine]	< 200 nM	< 200	200 to 1000
CN(C)c1ccc(-c2cnc3[nH]cc(-c4nncn4-c4cccc(F)c4F)c3c2)cc1 [Compound 106, (4-{3-[4-(2,3-Difluoro-phenyl)-4H-[1,2,4]triazol-3-yl]-1H-pyrrolo[2,3-b]pyridin-5-yl}-phenyl)-dimethyl-amine]	200 to 1000 nM	< 200	1000 to 12500
Fc1cccc(-c2cnoc2-c2c[nH]c3ncc(/C=C/n4cncn4)cc23)c1F [Compound 133, 3-[4-(2,3-Difluoro-phenyl)-isoxazol-5-yl]-5-(2-[1,2,4]triazol-1-yl-vinyl)-1H-pyrrolo[2,3-b]pyridine]	< 200 nM	< 200	1000 to 12500
Cc1noc(-c2c[nH]c3ncccc23)c1-c1cccc(F)c1F [Compound 134, 3-[4-(2,3-Difluoro-phenyl)-3-methyl-isoxazol-5-yl]-1H-pyrrolo[2,3-b]pyridine]	1000 to 12500 nM	200 to 1000	1000 to 12500
Cc1noc(-c2c[nH]c3ncc(-c4ccc(N5CCN(C)CC5)cc4)cc23)c1-c1cccc(F)c1F [Compound 135, 3-[4-(2,3-Difluoro-phenyl)-3-methyl-isoxazol-5-yl]-5-[4-(4-methyl-piperazin-1-yl)-phenyl]-1H-pyrrolo[2,3-b]pyridine]	200 to 1000 nM	< 200	200 to 1000
